From patent US20210156844A1, “TMEM16A Modulation for Diagnostic or Therapeutic Use in Pulmonary Hypertension (PH)” (Bayer Aktiengesellschaft, priority 2017, published 2021) come the findings set out here.

The subject of one data set is hypoxia-exposed mice. The data set can be described thus: Chronic hypoxia-induced mouse model of PH, slow-release pellets. It counts as in vivo. The text has this:
The experimental protocol is depicted in FIG. 12A. Male C57BL/6J mice (Charles River) at the age of 10 weeks were either placed into a hypoxic chamber (FiO2=0.1, n=16) for 4 weeks, or kept at normoxic conditions (control group, FiO2=0.21, n=8). According to the reports of Fagan et al. (Fagan, K A, et al. Am. J. Physiol. Lung Cell. Mol. Physiol. (2004) 287, L656-664) and Tuscherer et al. (Tuchscherer, H A, et al., J. Biomech. (2007) 40, 993-1001), a significant increase in the right ventricular systolic pressure (RVSP) and PA muscularization can be observed already after 14 days of hypoxia exposure. Therefore, mice subjected to hypoxia were randomized into two groups at the end of the second week. Eight mice received a subcutaneous slow-release pellet containing benzbromarone (Innovative Research of America, Sarasota Fla., USA) (HOX+BBR) and the other 8 mice received pellets with vehicle (HOX+Veh). The pellets ensured a stable blood concentration of the drug/vehicle over the next two weeks. At the end of week 4, all mice were subjected to in vivo hemodynamic measurements, followed by sacrifice and organ collection.
In mice, in vivo hemodynamics was performed under constant inhalation of 2% isoflurane/oxygen, using the closed chest technique through a small incision on the submandibular area. Body temperature was monitored and maintained at 37±1° C. A limb-lead ECG was recorded and the heart rate was kept constant to avoid changes in the sympathetic tone during the experiment. The right ventricle (RV) was catheterized via the right jugular vein using a 1.4 F Millar catheter (SPR-671, Millar, Houston Tex., USA) and right ventricular systolic pressure (RVSP) was measured continuously. Another catheter was inserted into the left carotid artery to monitor systemic blood pressure. After recording of stable values, the experiment was either continued with the assessment of the acute hemodynamic effects of benzbromarone (described above), or mice were sacrificed immediately for organ collection. […]
At the end of the hemodynamic measurements, animals were exsanguinated and the heart and lungs were isolated. […] Right ventricular hypertrophy was assessed by calculating the Fulton index, defined as RV weight/(LV+S weight).
Paraffin-embedded mouse and rat lung tissues were cut to 2 μm thin sections. Double immunohistochemical staining and quantification of the non-muscularized and muscularized arteries were made as previously described (Crnkovic, S, et al., Respir. Physiol. Neurobiol. (2011) 179, 342-345). […] Vessel remodeling in lung sections was quantified using semi-automated image analysis software (Visiopharm, Hoersholm, Denmark). […] The percentage of non-muscularized and muscularized pulmonary arteries, relative to the total number of pulmonary arteries, was calculated. […]

Data set [1] has as its system U-46619 preconstricted isolated mouse PA. The data set is described as follows: Measurement of pulmonary artery tone ex vivo. On the procedure: Pulmonary artery rings were isolated from male C57BL/6J mice (20-25 weeks old, Charles River, Wilmington Mass., USA), as described by Jain et al. (Jain, P P, et al., Int. J. Nanomedicine (2014) 9, 3249-3261). Following stable contraction (approx. 30 minutes post-addition of U-46619, 30 nM), the arteries were subjected to cumulatively increasing concentrations (0.1 to 30 μM) of the TMEM6A blockers T16Ainh-A01 (Tocris) and benzbromarone (Sigma) in order to analyze the concentration-response relationships.

Data set [2] can be described thus: Solubility (comparative remark). In kind it is physicochemical.
Data set [3] relates to monocrotaline treated rats. The data set can be described thus: Monocrotaline treated rats, chronic treatment with slow-release pellets. It counts as in vivo, rat. On the procedure:
Male Sprague-Dawley rats (body weight: approx. 250 g, Charles River) received a single subcutaneous injection of monocrotaline (MCT, 60 mg/kg, n=16) or vehicle (control group, n=8). Since significant RVSP increase and PA muscularization had been detected as early as 12 days after the injection of MCT58, two weeks after monocrotaline treatment rats were randomly ordered into two groups. Subcutaneous slow-release pellets (Innovative Research of America) that contained either benzbromarone (MCT+BBR, n=8) or vehicle (MCT+Veh, n=8) were implanted. Four weeks after monocrotaline treatment all rats were subjected to echocardiography and in vivo hemodynamic measurements, thereafter they were sacrificed for organ collection.
Echocardiographic measurements were performed using a Vevo 770 High Resolution Imaging System with a 30 MHz RMV-707B scan head (VisualSonics, Toronto, Canada) as previously reported (Egemnazarov, B, et al., J. Am. Soc. Echocardiogr. (2015) 28, 828-843). Briefly, animals were mounted on a heated pad and kept under anaesthesia with isoflurane 0.8-1.2%. Chest hair was depilated and a layer of sonographic coupling gel was applied to the thorax. RV internal diameter (RVID) and free wall thickness (RVFW) from the left parasternal long axis view were measured in M-mode and 2-D modalities. RV outflow tract was visualized from the parasternal short axis view at the level of the aortic valve. From this view, pulse wave (PW) Doppler flow recordings of the pulmonary artery were obtained with the sample volume positioned at the tip of the pulmonary valve leaflets. Here, peak velocity, acceleration time (PAAT), and velocity-time integral (VTI) were measured. For every parameter, measurements were done for 4-5 cardiac cycles and results were averaged. Cardiac output was calculated as CO (mL/min)=(7.85×[RV outflow tract]2×pulmonary valve velocity-time integral×heart rate)/1,000. Cardiac index (CI) was obtained by normalizing cardiac output to body weight.
In rats, in vivo hemodynamic measurements were conducted as described above for the mice, with the exception that for the right ventricular and the systolic blood pressures, 2 F Millar Catheters (SPR-513 and SPR-320, respectively) were used.
At the end of the hemodynamic measurements, animals were exsanguinated and the heart and lungs were isolated. The right ventricle (RV) was dissected from the left ventricle+septum (LV+S) and both of them were weighed. Right ventricular hypertrophy was assessed by calculating the Fulton index, defined as RV weight/(LV+S weight).
Paraffin-embedded mouse and rat lung tissues were cut to 2 μm thin sections. Double immunohistochemical staining and quantification of the non-muscularized and muscularized arteries were made as previously described (Crnkovic, S, et al., Respir. Physiol. Neurobiol. (2011) 179, 342-345). Immunostained slides were scanned with an Olympus BX61VS microscope using the OlyVIA software (Olympus Austria GmbH, Vienna, Austria). Vessel remodeling in lung sections was quantified using semi-automated image analysis software (Visiopharm, Hoersholm, Denmark). Throughout the analysis, all samples were identified with number codes to blind the operator for the experimental group. The percentage of non-muscularized and muscularized pulmonary arteries, relative to the total number of pulmonary arteries, was calculated.
Serial sections from the same lungs were used to determine cell proliferation in the PA wall, as described by Zabini et al. (Zabini, D. et al., J. Cell. Mol. Med. (2015) 19, 1151-1161). Lung sections were labeled using a primary antibody against the proliferation marker PCNA (sc-7907, Santa Cruz). Immunostained slides were scanned with an Olympus BX61VS microscope equipped with the OlyVIA software (Olympus Austria GmbH, Vienna, Austria). Negative controls were performed with the omission of the primary antibody.

[4] abbreviates: subcutaneous slow-release pellet weeks 2-4 of 4 weeks hypoxia, vs HOX+Veh.
[5] abbreviates: compared to the MCT+Veh group, week 4.
[6] abbreviates: slow-release pellet from two weeks after MCT, echocardiography at week 4.

On to `CCc1oc2ccccc2c1C(=O)c1cc(Br)c(O)c(Br)c1` [benzbromarone, (2-Ethyl-3-benzofuranyl)-(3,5-dibrom-4-hydroxyphenyl)ketone], for which the “PCNA positive nuclei in the medial layer of the PA” value with hypoxia-exposed mice (hypoxic mice, lung sections (not shown)) was “reduced number”. Also, the “hypoxia-induced muscularization of pulmonary arteries” value with hypoxia-exposed mice (ratio of fully vs non-muscularised arteries compared to HOX+Veh) is “reversed”. For the same molecule, in the data set on hypoxia-exposed mice (setting [4]), the Fulton index result is “lowered” and the RVSP entry is given as “lowered”. The “vasorelaxation of preconstricted PA” value in data set [1] (cumulatively increasing concentrations 0.1 to 30 μM, U-46619 30 nM) is on record as “dose-dependent vasorelaxation”. For the same molecule, the “potency compared with T16Ainh-A01” value in data set [1] (ex vivo PA vasodilator response) is “more potent”. For the same molecule, the “solubility compared with T16Ainh-A01” value in data set [2] is “better soluble”. Moreover, in data set [3] (MCT treated rats, lung sections (not shown)), the “PCNA positive nuclei in the medial layer of the PA” value is “reduced number”. In data set [3] (MCT+BBR vs MCT+Veh), the “number of fully muscularized arteries” value is listed as “markedly reduced” and the “number of non-muscularized arteries” value is reported as “increased”. In data set [3] (setting [5]), the “RV hypertrophy (Fulton-index)” value is recorded as “significantly decreased” and the RVSP entry is reported as “significantly decreased”. Also, in data set [3] (setting [6]), the “MCT-induced decrease in cardiac index (CI)” value is given as “completely reversed”, the “MCT-induced decrease in pulmonary artery acceleration time (PAAT)” value is “completely reversed” and the “MCT-induced increase in right ventricular free wall thickness (RVFW Thickness)” value is recorded as “completely reversed”.
